Data on 3 molecules can be found in patent US20240247080A1, “GLP1/GIP/NPY2 RECEPTOR TRIPLE AGONISTS” (Boehringer Ingelheim International GmbH, priority 2022, published 2024).

Each structure is given as a SMILES string. Where two headings read alike, the source gives them in different places.

Type in all cases: cell-based
Holding throughout (settings): CreLuc reporter gene assay

For assay [1], the target named is T1, hGIPR (Homo sapiens, UniProt P48546).
T1 construct: expressed in transfected cells; host or cells: CHO cells carrying a CRE-luciferase reporter gene
T1 sequence (P48546 22-466): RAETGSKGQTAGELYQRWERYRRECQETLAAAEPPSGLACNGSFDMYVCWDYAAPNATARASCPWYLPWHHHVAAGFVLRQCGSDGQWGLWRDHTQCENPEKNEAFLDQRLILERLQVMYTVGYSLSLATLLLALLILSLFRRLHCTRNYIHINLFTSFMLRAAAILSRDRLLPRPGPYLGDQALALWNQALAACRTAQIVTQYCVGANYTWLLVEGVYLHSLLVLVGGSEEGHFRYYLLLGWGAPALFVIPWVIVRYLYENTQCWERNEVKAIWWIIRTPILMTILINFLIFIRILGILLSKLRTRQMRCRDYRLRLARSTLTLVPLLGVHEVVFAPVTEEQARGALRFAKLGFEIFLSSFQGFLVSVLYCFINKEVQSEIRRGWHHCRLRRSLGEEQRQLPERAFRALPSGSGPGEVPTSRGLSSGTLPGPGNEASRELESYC
Description: hGIPR CreLuc reporter gene assay in 0.5% and 100% plasma. In a few lines:
(§1)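 HEK-293 cells co-expressing GLP-1 or NPY2 receptor and CHO cells expressing GIP receptor, each carrying a CRE-driven luciferase reporter, were stimulated with peptides for 4 hours at 37 °C. Luminescence was read after Bright-Glo addition. EC50 came from 8-point, four-decade curves fitted by variable-slope non-linear regression.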
(In a reporter assay the amount or activity of a reporter protein is the signal.)

Assay [2] concerns the target T2, hNPY2R (Homo sapiens, UniProt P49146).
T2 construct: expressed in transfected cells; host or cells: HEK-293 cells carrying a CRE-luciferase reporter gene
T2 sequence (P49146 1-381): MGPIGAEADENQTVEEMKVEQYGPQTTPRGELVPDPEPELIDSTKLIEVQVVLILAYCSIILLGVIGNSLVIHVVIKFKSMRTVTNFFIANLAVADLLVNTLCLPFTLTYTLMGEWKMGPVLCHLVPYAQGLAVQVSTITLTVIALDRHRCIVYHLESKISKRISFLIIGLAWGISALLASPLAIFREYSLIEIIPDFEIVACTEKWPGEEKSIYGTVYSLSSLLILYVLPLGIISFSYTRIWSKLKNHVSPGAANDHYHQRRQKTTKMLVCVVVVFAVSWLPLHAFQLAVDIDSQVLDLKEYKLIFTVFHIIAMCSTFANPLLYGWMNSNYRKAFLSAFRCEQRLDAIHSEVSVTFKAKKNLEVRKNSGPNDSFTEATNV
Description: hNPY2R CreLuc reporter gene assay in 0.5% and 100% plasma. In a few lines: as §1

In assay [3] the target is T3, hGLP1R (Homo sapiens, UniProt P43220).
T3 construct: expressed in transfected cells; host or cells: HEK-293 cells carrying a CRE-luciferase reporter gene
Description: hGLP1R CreLuc reporter gene assay in 0.5% and 100% plasma. In a few lines: as §1

Setting [4] is: 0.5% human plasma, read-out: hGIPR 0.5% hP.
Setting [5] is: 0.5% human plasma, read-out: hNPY2R 0.5% hP.
The mark [6] stands for this setting: 0.5% human plasma, read-out: hGLP1R 0.5% hP.
[7] abbreviates: 100% human plasma, read-out: hGIPR 100% hP.
[8] abbreviates: 100% human plasma, read-out: hGLP1R 100% hP.

T3 sequence (P43220 24-463): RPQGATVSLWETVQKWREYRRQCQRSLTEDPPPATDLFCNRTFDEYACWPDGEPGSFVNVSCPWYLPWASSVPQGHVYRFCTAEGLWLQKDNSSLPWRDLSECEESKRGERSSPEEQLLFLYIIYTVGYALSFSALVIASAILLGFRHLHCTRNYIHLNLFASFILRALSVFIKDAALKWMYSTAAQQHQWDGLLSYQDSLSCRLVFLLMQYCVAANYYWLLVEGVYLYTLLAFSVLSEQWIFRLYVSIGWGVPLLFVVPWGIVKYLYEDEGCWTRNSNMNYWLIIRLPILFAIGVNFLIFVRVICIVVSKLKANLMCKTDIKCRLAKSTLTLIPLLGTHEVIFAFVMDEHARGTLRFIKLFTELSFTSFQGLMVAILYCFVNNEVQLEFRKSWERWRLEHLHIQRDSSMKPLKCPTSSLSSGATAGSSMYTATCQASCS

On to `CC[C@H](C)[C@H](NC(=O)[C@H](CC(C)C)NC(=O)[C@H](Cc1c[nH]c2ccccc12)NC(=O)[C@H](CCC(N)=O)NC(=O)[C@@H](NC(=O)[C@H](Cc1ccccc1)NC(=O)[C@H](CCC(=O)O)NC(=O)C(C)(C)NC(=O)[C@H](CCC(N)=O)NC(=O)[C@H](C)NC(=O)[C@H](CCC(N)=O)NC(=O)[C@H](CCCCN)NC(=O)[C@H](CCC(=O)O)NC(=O)[C@H](CC(C)C)NC(=O)C(C)(C)NC(=O)[C@@H](NC(=O)[C@H](CO)NC(=O)[C@H](Cc1ccc(O)cc1)NC(=O)[C@H](CC(=O)O)NC(=O)[C@H](CO)NC(=O)[C@@H](NC(=O)[C@H](Cc1ccccc1)NC(=O)[C@@H](NC(=O)CNC(=O)[C@H](CCC(=O)O)NC(=O)C(C)(C)NC(=O)[C@@H](N)Cc1ccc(O)cc1)[C@@H](C)O)[C@@H](C)O)[C@@H](C)CC)C(C)C)C(=O)N[C@@H](CCCCNC(=O)[C@H](CCC(=O)O)NC(=O)[C@H](CCC(=O)O)NC(=O)[C@H](CCC(=O)O)NC(=O)[C@H](CCC(=O)O)NC(=O)[C@H](CCC(=O)O)NC(=O)CCCCCCCCCCCCCCCCC(=O)O)C(=O)NCC(=O)NCC(=O)N1CCC[C@H]1C(=O)N[C@@H](CO)C(=O)N[C@@H](CCC(=O)O)C(=O)NCC(=O)N[C@@H](C)C(=O)N[C@@H](CO)C(=O)N[C@@H](CC(C)C)C(=O)N[C@@H](CCCNC(=N)N)C(=O)N[C@@H](Cc1c[nH]cn1)C(=O)N[C@@H](Cc1ccc(O)cc1)C(=O)N[C@@H](Cc1ccc(O)cc1)C(=O)N[C@@H](CC(N)=O)C(=O)N[C@@H](Cc1c[nH]c2ccccc12)C(=O)N[C@@H](CC(C)C)C(=O)N[C@H](C(=O)N[C@@H](CCCNC(=N)N)C(=O)N[C@@H](CCC(N)=O)C(=O)N[C@@H](CCCNC(=N)N)C(=O)N[C@@H](Cc1ccc(O)cc1)C(N)=O)[C@@H](C)O` [Compound 176, Y-Aib-E-G-T-F-T-S-D-Y-S-I-Aib-L-E-K-Q-A-Q-Aib-E-F-V-Q-W-L-I-K(1,3)-GGPSEGASLRHYYNWLTRQRY-NH2.C18DA-E-E-E-E-E(1,2)], for which the EC50 in assay [1] (setting [4]) was found to be 0.68 nM; in assay [2] (setting [5]), 30.4 nM; in assay [2] (100% human plasma, read-out: hNPY2R 100% hP) it was 197 nM; in assay [3] (setting [6]), 0.29 nM.
In the case of `CC[C@H](C)[C@H](NC(=O)[C@H](CC(C)C)NC(=O)[C@H](Cc1c[nH]c2ccccc12)NC(=O)[C@H](CCC(=O)O)NC(=O)[C@@H](NC(=O)[C@H](Cc1ccccc1)NC(=O)[C@H](C)NC(=O)C(C)(C)NC(=O)[C@H](CCC(N)=O)NC(=O)[C@H](C)NC(=O)[C@H](CCC(N)=O)NC(=O)[C@H](CCCCN)NC(=O)[C@H](CCC(=O)O)NC(=O)[C@H](CC(C)C)NC(=O)C(C)(C)NC(=O)[C@@H](NC(=O)[C@H](CO)NC(=O)[C@H](Cc1ccc(O)cc1)NC(=O)[C@H](CC(=O)O)NC(=O)[C@H](CO)NC(=O)[C@@H](NC(=O)[C@H](Cc1ccccc1)NC(=O)[C@@H](NC(=O)CNC(=O)[C@H](CCC(=O)O)NC(=O)C(C)(C)NC(=O)[C@@H](N)Cc1ccc(O)cc1)[C@@H](C)O)[C@@H](C)O)[C@@H](C)CC)C(C)C)C(=O)N[C@@H](CCCCNC(=O)[C@@H](N)CCCCNC(=O)CC[C@H](NC(=O)CC[C@H](NC(=O)CC[C@H](NC(=O)CC[C@H](NC(=O)CC[C@H](NC(=O)CC[C@H](NC(=O)CCCCCCCCCCCCCCCCCCC(=O)O)C(=O)O)C(=O)O)C(=O)O)C(=O)O)C(=O)O)C(=O)O)C(=O)NCC(=O)NCC(=O)N1CCC[C@H]1C(=O)N[C@@H](CO)C(=O)N[C@@H](CCC(=O)O)C(=O)NCC(=O)N[C@@H](CCC(=O)O)C(=O)N[C@@H](CO)C(=O)N[C@@H](CC(C)C)C(=O)N[C@@H](CCCNC(=N)N)C(=O)N[C@@H](Cc1c[nH]cn1)C(=O)N[C@@H](Cc1ccc(O)cc1)C(=O)N[C@@H](Cc1ccc(O)cc1)C(=O)N[C@@H](CC(N)=O)C(=O)N[C@@H](Cc1c[nH]c2ccccc12)C(=O)N[C@@H](CC(C)C)C(=O)N[C@H](C(=O)N[C@@H](CCCNC(=N)N)C(=O)N[C@@H](CCC(N)=O)C(=O)N[C@@H](CCCNC(=N)N)C(=O)N[C@@H](Cc1ccc(O)cc1)C(N)=O)[C@@H](C)O` [Compound 237, Y-Aib-E-G-T-F-T-S-D-Y-S-I-Aib-L-E-K-Q-A-Q-Aib-A-F-V-E-W-L-I-K(1,3)-GGPSEGESLRHYYNWLTRQRY-NH2.C20DA-gGlu-gGlu-gGlu-gGlu-gGlu-gGlu-eLys(1,2)], the EC50 in assay [1] (setting [4]) worked out at 0.1 nM; in assay [1] (setting [7]), 1.17 nM; in assay [2] (setting [5]), 18 nM; in assay [3] (setting [6]), 0.26 nM; in assay [3] (setting [8]), 3.11 nM.
`CC[C@H](C)[C@H](NC(=O)[C@H](CC(C)C)NC(=O)[C@H](Cc1c[nH]c2ccccc12)NC(=O)[C@H](CCC(N)=O)NC(=O)[C@@H](NC(=O)[C@H](Cc1ccccc1)NC(=O)[C@H](C)NC(=O)C(C)(C)NC(=O)[C@H](CCC(N)=O)NC(=O)[C@H](C)NC(=O)[C@H](CCC(N)=O)NC(=O)[C@H](CCCCN)NC(=O)[C@H](CCC(=O)O)NC(=O)[C@H](CC(C)C)NC(=O)C(C)(C)NC(=O)[C@@H](NC(=O)[C@H](CO)NC(=O)[C@H](Cc1ccc(O)cc1)NC(=O)[C@H](CC(=O)O)NC(=O)[C@H](CO)NC(=O)[C@@H](NC(=O)[C@H](Cc1ccccc1)NC(=O)[C@@H](NC(=O)CNC(=O)[C@H](CCC(=O)O)NC(=O)C(C)(C)NC(=O)[C@@H](N)Cc1ccc(O)cc1)[C@@H](C)O)[C@@H](C)O)[C@@H](C)CC)C(C)C)C(=O)N[C@@H](CCCCNC(=O)[C@@H](N)CCCCNC(=O)[C@H](CCC(=O)O)NC(=O)[C@H](CCC(=O)O)NC(=O)[C@H](CCC(=O)O)NC(=O)[C@H](CCC(=O)O)NC(=O)[C@H](CCC(=O)O)NC(=O)[C@H](CCC(=O)O)NC(=O)CCCCCCCCCCCCCCCCC(=O)O)C(=O)NCC(=O)NCC(=O)N1CCC[C@H]1C(=O)N[C@@H](CO)C(=O)N[C@@H](CCC(=O)O)C(=O)NCC(=O)N[C@@H](C)C(=O)N[C@@H](CO)C(=O)N[C@@H](CC(C)C)C(=O)N[C@@H](CCCNC(=N)N)C(=O)N[C@@H](Cc1c[nH]cn1)C(=O)N[C@@H](Cc1ccc(O)cc1)C(=O)N[C@@H](Cc1ccc(O)cc1)C(=O)N[C@@H](CC(N)=O)C(=O)N[C@@H](Cc1c[nH]c2ccccc12)C(=O)N[C@@H](CC(C)C)C(=O)N[C@H](C(=O)N[C@@H](CCCNC(=N)N)C(=O)N[C@@H](CCC(N)=O)C(=O)N[C@@H](CCCNC(=N)N)C(=O)N[C@@H](Cc1ccc(O)cc1)C(N)=O)[C@@H](C)O` [Compound 249, Y-Aib-E-G-T-F-T-S-D-Y-S-I-Aib-L-E-K-Q-A-Q-Aib-A-F-V-Q-W-L-I-K(1,3)-GGPSEGASLRHYYNWLTRQRY-NH2.C18DA-E-E-E-E-E-E-eLys(1,2)]: the EC50 in assay [1] (setting [4]) was 0.19 nM; in assay [1] (setting [7]) it was 1.25 nM; in assay [2] (setting [5]), 17.8 nM; in assay [3] (setting [6]) it was 0.13 nM; in assay [3] (setting [8]), 1.78 nM.
